Data reported in patent publication US20250177359A1, “COMPOUNDS FOR USE IN THE TREATMENT OF CANCER AND INFLAMMATORY CONDITIONS” (priority 2022, published 2025).

Target: T1, PARP10 (Homo sapiens, UniProt Q53GL7)
T1 construct: made in house
T1 sequence (Q53GL7 1-1025): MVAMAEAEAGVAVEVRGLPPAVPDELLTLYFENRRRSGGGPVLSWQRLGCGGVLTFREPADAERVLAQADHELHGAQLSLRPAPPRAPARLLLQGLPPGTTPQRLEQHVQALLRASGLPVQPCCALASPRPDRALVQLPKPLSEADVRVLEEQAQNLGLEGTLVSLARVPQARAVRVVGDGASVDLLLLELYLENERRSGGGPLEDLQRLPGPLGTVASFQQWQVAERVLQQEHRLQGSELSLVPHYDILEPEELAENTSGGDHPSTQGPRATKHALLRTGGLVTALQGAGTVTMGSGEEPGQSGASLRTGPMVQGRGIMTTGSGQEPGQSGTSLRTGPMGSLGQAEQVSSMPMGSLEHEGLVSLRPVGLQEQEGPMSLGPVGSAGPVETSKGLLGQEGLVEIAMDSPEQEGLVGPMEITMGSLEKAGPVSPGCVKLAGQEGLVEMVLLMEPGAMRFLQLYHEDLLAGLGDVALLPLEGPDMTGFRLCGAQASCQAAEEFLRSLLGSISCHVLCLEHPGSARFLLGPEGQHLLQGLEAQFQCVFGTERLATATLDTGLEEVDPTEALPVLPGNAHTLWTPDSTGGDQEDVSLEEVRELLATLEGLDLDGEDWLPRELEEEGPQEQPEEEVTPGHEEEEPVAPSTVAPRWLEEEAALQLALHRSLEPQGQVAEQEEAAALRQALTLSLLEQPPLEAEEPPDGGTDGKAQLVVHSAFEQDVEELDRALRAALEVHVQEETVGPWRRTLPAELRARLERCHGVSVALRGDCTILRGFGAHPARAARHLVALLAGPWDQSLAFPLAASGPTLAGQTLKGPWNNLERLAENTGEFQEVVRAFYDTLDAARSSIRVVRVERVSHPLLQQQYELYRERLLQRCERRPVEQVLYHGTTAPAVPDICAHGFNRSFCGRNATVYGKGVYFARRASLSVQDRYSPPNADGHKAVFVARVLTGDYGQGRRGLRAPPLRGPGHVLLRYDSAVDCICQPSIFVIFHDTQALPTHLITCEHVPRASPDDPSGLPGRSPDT
Test: Activity assay measuring NAD+ consumption, PARP10 (Tables 1-3)
Format: biochemical
Conditions: PARP10 IC50, Tables 1-3 assay

Nc1nnc2sc3cc(O)ccc3n12 [Compound 109, 3-Amino[1,2,4]triazolo[3,4-b][1,3]benzothiazol-7-ol]
IC50: 220 nM
